Results published in patent US6355799B1, “Substituted benzene compounds, process for their preparation, and herbicidal and defoliant compositions containing them” (ISK Americas Incorporated, priority 1997, dated 2002).

What was measured:
Format in all cases: in vivo
[1] = test system: redroot pigweed (Amaranthus retroflexus, AMARE); assay: Pre-emerge test, greenhouse herbicide activity screening
Procedure, shortened: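 Compounds in acetone were track-sprayed at 15-1000 g ai/ha (187 l/ha) on sandy loam pots: pre-emerge one day after seeding, post-emerge at 2-3 leaf stage with 0.25% v/v non-ionic surfactant. Phytotoxicity was rated 14 days later on a 0 (no damage) to 100 (complete death) scale.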

[2] = test system: barnyardgrass (Echinochloa crus-galli, ECHCG); assay: as above
Description: (§1) A standard greenhouse herbicide activity screening system was used to evaluate the herbicidal efficacy and crop safety of these test compounds. Seven broadleaf weed species including redroot pigweed (Amaranthus retroflexus, AMARE, velvetleaf (Abutilon theophrasti, ABUTH), sicklepod (Cassia obtusifolia, CASOB), ivyleaf morningglory (Ipomoea hederacea, IPOHE), lambsquarters (Chenopodium album, CHEAL), common ragweed (Ambrosia artemisizfolia L., AMBEL), and cocklebur (Xanthium strumarium, XANST) were used as test species. Four grass weed species including green foxtail (Setaria viridis, SETVI), barnyardgrass (Echinochloa crus-galli, ECHCG), johnsongrass (Sorghum halepense, SORHA), and large crabgrass (Digitaria sanguinalis, DIGSA) were also used. In addition, three crop species, field corn (Zea mays L., var. Dekalb 535, CORN), soybean (Glycine max L., var. Pella 86, SOY), and is upland rice (Oryza sp., var. Tebonnet, RICE) were included.
(§2) All plants were grown in 10 cm square plastic pots which were filled with a sandy loam soil mix. For pre-emerge tests, seeds were planted one day prior to application of the test compounds. For post-emerge tests, seeds were planted 8-21 days prior to the test to allow emergence and good foliage development prior to application of the test substances. At the time of the post-emerge application, plants of all species were usually at the 2-3 leaf stage of development.
(§3) All test compounds Were dissolved in acetone and applied to the test units in a volume of 187 l /ha. Test materials were applied at rates ranging from 15 g ai/ha to 1000 g ai/ha using a track sprayer equipped with a TJ8001E even flow flat fan spray nozzle. Plants were arranged on a shelf so that the top of the canopy (post-emerge) or top of the soil surface (pre-emerge) was 40-45 cm below the nozzle. Pressurized air was used to force the test solution through the nozzle as it was mechanically advanced (via electrically driven chain drive) over the top of all test plants/pots. This application simulates a typical commercial field herbicide application.
(§4) In the post-emerge test, a commercial non-ionic surfactant was also included (0.25% v/v) to enhance wetting of the leaf surfaces of target plants. Immediately after application, test units of the pre-emerge applications were watered at the soil surface to incorporate the test materials. Subsequently, these test units were bottom-watered. Post-emerge test units were always bottom-watered.
(§5) At 14 days after application of the test materials, phytotoxicity ratings were recorded. A rating scale of 0-100 was used as previously described in Research Methods in Weed Science, 2nd edition, B. Truelove, Ed., Southern Weed Science Society, Auburn University, Auburn, Ala. 1977. Briefly, “0” corresponds to no damage and “100” corresponds to complete death of all plants in the test unit. This scale was used both to determine efficacy against weed species and damage to crop species. Herbicide activity data for various compounds of this invention, which are shown by compound No. in Tables 1-8, are shown in Tables 11 and 12.

[3] = test system: lambsquarters (Chenopodium album, CHEAL); assay: as above
Description: as §1, §2, §3, §4, §5

[4] = test system: ivyleaf morningglory (Ipomoea hederacea, IPOHE); assay: as above
Description: as §1, §2, §3, §4, §5

[5] = test system: green foxtail (Setaria viridis, SETVI); assay: as above
Description: as §1, §2, §3, §4, §5

[6] = test system: sicklepod (Cassia obtusifolia, CASOB); assay: as above
Description: as §1, §2, §3, §4, §5

[7] = test system: velvetleaf (Abutilon theophrasti, ABUTH); assay: as above
Description: as §1, §2, §3, §4, §5

[8] = test system: large crabgrass (Digitaria sanguinalis, DIGSA); assay: as above
Description: as §1, §2, §3, §4, §5

[9] = test system: upland rice (Oryza sp., var. Tebonnet, RICE); assay: Pre-emerge test, crop safety
Procedure, shortened: (§6)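 Plants grown in 10 cm pots of sandy loam mix received acetone-dissolved compounds through a moving flat-fan nozzle. Doses ranged from 15 to 1000 g ai/ha. Pre-emerge pots were seeded one day earlier, post-emerge pots 8–21 days earlier. Fourteen days on, each pot was graded 0–100 for damage.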

[10] = test system: field corn (Zea mays L., var. Dekalb 535, CORN); assay: Pre-emerge test, crop safety
Procedure, shortened: as §6

[11] = test system: upland rice (Oryza sp., var. Tebonnet, RICE); assay: Post-emerge test, crop safety; conditions: post-emerge; for phytotoxicity rating RICE (crop damage): 14 days after application, rating scale 0-100; for Post-emerge Herbicidal Activity RICE: crop damage rating 0-100 at 14 days after application
Procedure, shortened: as §6

[12] = test system: field corn (Zea mays L., var. Dekalb 535, CORN); assay: Post-emerge test, crop safety; conditions: post-emerge; for phytotoxicity rating CORN (crop damage): 14 days after application, rating scale 0-100; for Post-emerge Herbicidal Activity CORN: crop damage rating 0-100 at 14 days after application
Procedure, shortened: as §6

[13] = test system: barnyardgrass (Echinochloa crus-galli, ECHCG); assay: Post-emerge test, greenhouse herbicide activity screening; conditions: post-emerge; for phytotoxicity rating ECHCG: 14 days after application, rating scale 0-100; for Post-emerge Herbicidal Activity ECHCG: phytotoxicity rating 0-100 at 14 days after application
Description: as §1, §2, §3, §4, §5

[14] = test system: lambsquarters (Chenopodium album, CHEAL); assay: as above; conditions: post-emerge; for phytotoxicity rating CHEAL: 14 days after application, rating scale 0-100; for Post-emerge Herbicidal Activity CHEAL: phytotoxicity rating 0-100 at 14 days after application
Description: as §1, §2, §3, §4, §5

[15] = test system: ivyleaf morningglory (Ipomoea hederacea, IPOHE); assay: as above; conditions: post-emerge; for phytotoxicity rating IPOHE: 14 days after application, rating scale 0-100; for Post-emerge Herbicidal Activity IPOHE: phytotoxicity rating 0-100 at 14 days after application
Description: as §1, §2, §3, §4, §5

[16] = test system: green foxtail (Setaria viridis, SETVI); assay: as above; conditions: post-emerge; for phytotoxicity rating SETVI: 14 days after application, rating scale 0-100; for Post-emerge Herbicidal Activity SETVI: phytotoxicity rating 0-100 at 14 days after application
Description: as §1, §2, §3, §4, §5

[17] = test system: sicklepod (Cassia obtusifolia, CASOB); assay: as above; conditions: post-emerge; for phytotoxicity rating CASOB: 14 days after application, rating scale 0-100; for Post-emerge Herbicidal Activity CASOB: phytotoxicity rating 0-100 at 14 days after application
Description: as §1, §2, §3, §4, §5

[18] = test system: redroot pigweed (Amaranthus retroflexus, AMARE); assay: as above; conditions: post-emerge; for phytotoxicity rating AMARE: 14 days after application; for Post-emerge Herbicidal Activity AMARE: phytotoxicity rating 0-100 at 14 days after application
Description: as §1, §2, §3, §4, §5

[19] = test system: velvetleaf (Abutilon theophrasti, ABUTH); assay: as above; conditions: post-emerge; for phytotoxicity rating ABUTH: 14 days after application, rating scale 0-100; for Post-emerge Herbicidal Activity ABUTH: phytotoxicity rating 0-100 at 14 days after application
Description: as §1, §2, §3, §4, §5

[20] = test system: large crabgrass (Digitaria sanguinalis, DIGSA); assay: as above; conditions: post-emerge; for phytotoxicity rating DIGSA: 14 days after application, rating scale 0-100; for Post-emerge Herbicidal Activity DIGSA: phytotoxicity rating 0-100 at 14 days after application
Description: as §1, §2, §3, §4, §5

[21] = 63 g ai/ha, phytotoxicity rating 0-100, 14 days after application
[22] = 250 g ai/ha, phytotoxicity rating 0-100, 14 days after application
[23] = 63 g ai/ha, crop damage rating 0-100, 14 days after application
[24] = 250 g ai/ha, crop damage rating 0-100, 14 days after application
[25] = pre-emerge, rate 63 g ai/ha, phytotoxicity rating 0-100 at 14 days after application
[26] = pre-emerge, rate 250 g ai/ha, phytotoxicity rating 0-100 at 14 days after application
[27] = crop damage, pre-emerge, rate 63 g ai/ha, phytotoxicity rating 0-100 at 14 days after application
[28] = crop damage, pre-emerge, rate 250 g ai/ha, phytotoxicity rating 0-100 at 14 days after application

COc1c(Cl)cc(F)c(-n2c(=O)cc(C(F)(F)F)n(C)c2=O)c1NC(=O)OCc1ccc(C(F)(F)F)cc1 [4-43]
Pre-emerge Herbicidal Activity AMARE [1, 21]: 10 | Pre-emerge Herbicidal Activity AMARE [1, 22]: 60 | Pre-emerge Herbicidal Activity ECHCG [2, 21]: 0 | Pre-emerge Herbicidal Activity ECHCG [2, 22]: 10 | Pre-emerge Herbicidal Activity CHEAL [3, 21]: 30 | Pre-emerge Herbicidal Activity CHEAL [3, 22]: 80 | Pre-emerge Herbicidal Activity IPOHE [4, 21]: 0 | Pre-emerge Herbicidal Activity IPOHE [4, 22]: 10 | Pre-emerge Herbicidal Activity SETVI [5, 21]: 0 | Pre-emerge Herbicidal Activity SETVI [5, 22]: 70 | Pre-emerge Herbicidal Activity CASOB [6, 21]: 0 | Pre-emerge Herbicidal Activity CASOB [6, 22]: 40 | Pre-emerge Herbicidal Activity ABUTH [7, 21]: 20 | Pre-emerge Herbicidal Activity ABUTH [7, 22]: 50 | Pre-emerge Herbicidal Activity DIGSA [8, 21]: 0 | Pre-emerge Herbicidal Activity DIGSA [8, 22]: 60 | Pre-emerge Herbicidal Activity RICE [9, 23]: 0 | Pre-emerge Herbicidal Activity RICE [9, 24]: 10 | Pre-emerge Herbicidal Activity CORN [10, 23]: 0 | Pre-emerge Herbicidal Activity CORN [10, 24]: 0 | phytotoxicity rating RICE (crop damage) ([11]; 63 g ai/ha): 0 | phytotoxicity rating RICE (crop damage) ([11]; 250 g ai/ha): 0 | phytotoxicity rating CORN (crop damage) ([12]; 63 g ai/ha): 0 | phytotoxicity rating CORN (crop damage) ([12]; 250 g ai/ha): 10 | phytotoxicity rating ECHCG ([13]; 63 g ai/ha): 0 | phytotoxicity rating ECHCG ([13]; 250 g ai/ha): 10 | phytotoxicity rating CHEAL ([14]; 63 g ai/ha): 80 | phytotoxicity rating CHEAL ([14]; 250 g ai/ha): 90 | phytotoxicity rating IPOHE ([15]; 63 g ai/ha): 40 | phytotoxicity rating IPOHE ([15]; 250 g ai/ha): 40 | phytotoxicity rating SETVI ([16]; 63 g ai/ha): 0 | phytotoxicity rating SETVI ([16]; 250 g ai/ha): 40 | phytotoxicity rating CASOB ([17]; 63 g ai/ha): 50 | phytotoxicity rating CASOB ([17]; 250 g ai/ha): 60 | phytotoxicity rating AMARE ([18]; 63 g ai/ha, rating scale 0-100 (0 no damage, 100 complete death)): 70 | phytotoxicity rating AMARE ([18]; 250 g ai/ha, rating scale 0-100): 100 | phytotoxicity rating ABUTH ([19]; 63 g ai/ha): 60 | phytotoxicity rating ABUTH ([19]; 250 g ai/ha): 100 | phytotoxicity rating DIGSA ([20]; 63 g ai/ha): 0 | phytotoxicity rating DIGSA ([20]; 250 g ai/ha): 0

Cc1cc(C)c(COC(=O)Nc2c(C)c(Cl)cc(F)c2-n2c(=O)cc(C(F)(F)F)n(C)c2=O)c(C)c1 [4-69]
Pre-emerge Herbicidal Activity AMARE [1, 25]: 30 | Pre-emerge Herbicidal Activity AMARE [1, 26]: 80 | Pre-emerge Herbicidal Activity ECHCG [2, 25]: 30 | Pre-emerge Herbicidal Activity ECHCG [2, 26]: 70 | Pre-emerge Herbicidal Activity CHEAL [3, 25]: 70 | Pre-emerge Herbicidal Activity CHEAL [3, 26]: 90 | Pre-emerge Herbicidal Activity IPOHE [4, 25]: 0 | Pre-emerge Herbicidal Activity IPOHE [4, 26]: 40 | Pre-emerge Herbicidal Activity SETVI [5, 25]: 95 | Pre-emerge Herbicidal Activity SETVI [5, 26]: 100 | Pre-emerge Herbicidal Activity CASOB [6, 25]: 0 | Pre-emerge Herbicidal Activity CASOB [6, 26]: 50 | Pre-emerge Herbicidal Activity ABUTH [7, 25]: 80 | Pre-emerge Herbicidal Activity ABUTH [7, 26]: 90 | Pre-emerge Herbicidal Activity DIGSA [8, 25]: 100 | Pre-emerge Herbicidal Activity DIGSA [8, 26]: 100 | Pre-emerge Herbicidal Activity RICE [9, 27]: 10 | Pre-emerge Herbicidal Activity RICE [9, 28]: 30 | Pre-emerge Herbicidal Activity CORN [10, 27]: 0 | Pre-emerge Herbicidal Activity CORN [10, 28]: 0 | Post-emerge Herbicidal Activity RICE ([11]; 63 g ai/ha): 0 | Post-emerge Herbicidal Activity RICE ([11]; 250 g ai/ha): 40 | Post-emerge Herbicidal Activity CORN ([12]; 63 g ai/ha): 5 | Post-emerge Herbicidal Activity CORN ([12]; 250 g ai/ha): 35 | Post-emerge Herbicidal Activity ECHCG ([13]; 63 g ai/ha): 20 | Post-emerge Herbicidal Activity ECHCG ([13]; 250 g ai/ha): 40 | Post-emerge Herbicidal Activity CHEAL ([14]; 63 g ai/ha): 90 | Post-emerge Herbicidal Activity CHEAL ([14]; 250 g ai/ha): 100 | Post-emerge Herbicidal Activity IPOHE ([15]; 63 g ai/ha): 70 | Post-emerge Herbicidal Activity IPOHE ([15]; 250 g ai/ha): 100 | Post-emerge Herbicidal Activity SETVI ([16]; 63 g ai/ha): 40 | Post-emerge Herbicidal Activity SETVI ([16]; 250 g ai/ha): 80 | Post-emerge Herbicidal Activity CASOB ([17]; 63 g ai/ha): 40 | Post-emerge Herbicidal Activity CASOB ([17]; 250 g ai/ha): 70 | Post-emerge Herbicidal Activity AMARE ([18]; 63 g ai/ha): 100 | Post-emerge Herbicidal Activity AMARE ([18]; 250 g ai/ha): 100 | Post-emerge Herbicidal Activity ABUTH ([19]; 63 g ai/ha): 100 | Post-emerge Herbicidal Activity ABUTH ([19]; 250 g ai/ha): 100 | Post-emerge Herbicidal Activity DIGSA ([20]; 63 g ai/ha): 20 | Post-emerge Herbicidal Activity DIGSA ([20]; 250 g ai/ha): 50
